According to patent publication US10053422B2, “Compounds for the treatment of mTOR pathway related diseases” (Pitney Pharmaceuticals Pty Limited, priority 2012, dated 2018):
Entries after “also recorded” stand apart in the source; their conditions may differ. Like-named read-outs stand apart in the source and are kept apart here. Each block holds one compound with its values, some of them ahead of it.

What was measured:
A2780 cells = experiment: SRB cell proliferation assay, A2780; format: cell-based, human
Protocol: (§1) Cell proliferation was assessed using the sulforhodamine B (SRB) assay. Cells seeded in 96-well plate (2,000-3,000 cell/well) were treated with MPL (0, 1, 5, 10, 25, 50 and 100 μmol/L) for 72 h. Cells were then fixed, washed and stained with 100 μl of 0.4% (w/v) SRB dissolved in 1% acetic acid. Unbound dye was removed by five washes with 1% acetic acid before air drying. Bound SRB was solubilized with 100 μl of 10 mM Tris base (pH 10.5) and the absorbance read at 570 nm. Exactly the same procedure was used to assess MPL-SO2. Both agents were dissolved in ethanol and diluted with media to give the final concentrations required for cell culture assays.

[1] = test system: HUVEC (human umbilical vein endothelial cells); experiment: SRB cell proliferation assay, HUVEC; format: cell-based
Protocol: as §1

[2] = test system: CHO (Chinese hamster ovarian cells); experiment: SRB cell proliferation assay, CHO; format: cell-based; conditions: Cricetulus griseus
Protocol: as §1

OVCAR-3 cells = experiment: SRB cell proliferation assay, OVCAR-3; format: cell-based, human
Protocol: as §1

nematodes = conditions: previously shown; cited from earlier work
[3] = test system: HT-29 5m11 cells (colorectal cancer); experiment: SRB cell proliferation assay, HT-29 5m11; format: cell-based; conditions: Homo sapiens; HT-29 5m11, colorectal cancer (Table 2); read-out: IC50 in suppressing proliferation
Protocol: as §1

MCF-7 cells = experiment: SRB cell proliferation assay, MCF-7; format: cell-based; conditions: Homo sapiens, MCF7
Protocol: as §1

MDA-MB-231 cells = experiment: SRB cell proliferation assay, MDA-MB-231; format: cell-based; conditions: Homo sapiens
Protocol: as §1

T98G cells (glioma) = experiment: SRB cell proliferation assay, T98G; format: cell-based; conditions: Homo sapiens, glioma (Table 2), read-out: IC50 in suppressing proliferation
Protocol: as §1

1A9 cells = experiment: SRB cell proliferation assay, 1A9; format: cell-based; conditions: Homo sapiens
Protocol: as §1

U87 cells (glioblastoma) = experiment: SRB cell proliferation assay, U87; format: cell-based; conditions: Homo sapiens, U-87 MG
Protocol: as §1

3T3 fibroblast = experiment: SRB cell proliferation assay, 3T3; format: cell-based; conditions: 3T3, fibroblast (Table 2); read-out: IC50 in suppressing proliferation
Protocol: as §1

[4] = test system: HT-29 cells (colorectal cancer); experiment: SRB cell proliferation assay, HT-29; format: cell-based; conditions: Homo sapiens; HT-29, colorectal cancer (Table 2); read-out: IC50 in suppressing proliferation
Protocol: as §1

SKOV-3 cells = experiment: SRB cell proliferation assay, SKOV-3; format: cell-based; conditions: Homo sapiens, SK-OV-3
Protocol: as §1

U87 glioma cells = experiment: Autophagy (vacuoles, LC3-II), U87; format: cell-based; conditions: U87 glioma cells
From the text: Autophagy is a characteristic of mTOR inhibition.
Concentration-dependent conversion of LC3-I to LC3-II confirms the increasing phenomenon of autophagy in these cells.

T47-D cells = experiment: SRB cell proliferation assay, T47-D; format: cell-based; conditions: Homo sapiens, T47D, breast cancer (Table 2), read-out: IC50 in suppressing proliferation
Protocol: as §1

LN-18 cells (glioma) = experiment: SRB cell proliferation assay, LN-18; format: cell-based; conditions: Homo sapiens; LN-18, glioma (Table 2); read-out: IC50 in suppressing proliferation
Protocol: as §1

[5] = test system: HCT-116 cells (colorectal cancer); experiment: SRB cell proliferation assay, HCT-116; format: cell-based; conditions: Homo sapiens; HCT-116, colorectal cancer (Table 2); read-out: IC50 in suppressing proliferation
Protocol: as §1

HaCat keratinocyte = experiment: SRB cell proliferation assay, HaCat; format: cell-based; conditions: Homo sapiens, keratinocyte (Table 2), read-out: IC50 in suppressing proliferation
Protocol: as §1

cancer cell lines = experiment: SRB cell proliferation assay, range of cancer cell lines (general statements); format: cell-based
Protocol: as §1
In brief, MPL and MPL-SO2 were tested in vitro against a wide range of cancer cell-lines with extensively different disease characteristics. For further detailed studies, human ovarian cancer cell lines OVCAR-3 and A2780 were chosen. Additionally, normal human ovarian surface epithelial cells (HOSE) and were cultured in the presence of MPL (0, 5, 10, 25, 50 and 100 μM) for 72 h. Cell viability was assessed using Trypan blue assay (FIG. 9). Similarly, effect of MPL on the growth of normal epithelial, endothelial, embryonic and fetal cells were investigated (FIG. 10) while cell proliferation was assessed using the SRB assay (FIG. 11). Control (vehicle treated) cells were taken to present 100% proliferation and the MPL treated groups are expressed as percentage of control±SEM. Each drug concentration was tested in quadruplicate and each experiment was repeated at least twice. For statistical comparisons, each drug treated group is compared to the control group using Student's t test. To examine concentration dependent drug effect, analysis of variance (ANOVA) was used. P values are: *=<0.05; **<0.01 and ***=<0.001, **** p<0.0001. […] In order to find out if the MPL effect is mediated through the nicotinic acetyl choline receptor and in particular the nACHR7 subtype, cells were pretreated with antagonists and then exposed to MPL (FIG. 12).

HeLa cells = experiment: SRB cell proliferation assay, HeLa; format: cell-based; conditions: Homo sapiens, epithelial (adenocarcinoma) (Table 2), read-out: IC50 in suppressing proliferation
Protocol: as §1

IGROV-1 cells = experiment: SRB cell proliferation assay, IGROV-1; format: cell-based; conditions: Homo sapiens; IGROV-1, ovarian cancer (Table 2); read-out: IC50 in suppressing proliferation
Protocol: as §1

[6] = A2780, human epithelial ovarian cancer (Table 3), read-out: IC50 μM A2780
[7] = HUVEC = human umbilical vein endothelial cells (Table 3), read-out: IC50 μM HUVEC
[8] = CHO = Chinese hamster ovarian cells (Table 3), read-out: IC50 μM CHO
[9] = OVCAR-3, human epithelial ovarian cancer (Table 3), read-out: IC50 μM OVCAR-3

SMILES: CC(C#N)(COc1cc(F)ccc1Cl)NC(=O)c1ccc(OC(F)(F)F)cc1 (stereo not shown) [AAD 004]
IC50 (A2780 cells; [6]): 27.3 ± 0.5 µM
IC50 [1, 7]: 93 µM
IC50 [2, 8]: 57.3 µM
IC50 (OVCAR-3 cells; [9]): 18.6 ± 2.4 µM

SMILES: CC(C#N)(COc1cc(F)c(F)cc1C(F)(F)F)NC(=O)c1ccc(OC(F)(F)F)cc1 (stereo not shown) [AAD 1470]
IC50 (A2780 cells; [6]): 19.5 ± 4.1 µM
IC50 [1, 7]: 74 µM
IC50 [2, 8]: 32.2 µM
IC50 (OVCAR-3 cells; [9]): 12.9 ± 0.3 µM
ratio of IC50 values (normal cell/cancer cell) (OVCAR-3 cells; results of Table 3): particularly high activity

SMILES: C[C@](C#N)(COc1cc(C#N)ccc1C(F)(F)F)NC(=O)c1ccc(S(=O)(=O)C(F)(F)F)cc1 [MPL-SO2, monepantel sulphone]
IC50 [3]: 21.7 µM
IC50 (A2780 cells; Homo sapiens, A2780, ovarian cancer (Table 2), read-out: IC50 in suppressing proliferation): 4.2 µM
IC50 (A2780 cells; Homo sapiens, A2780, ovarian cancer, 72 h, SRB assay (Table 1), read-out: IC50): 4.2 µM
IC50 (MCF-7 cells; MCF-7, breast cancer (Table 2), read-out: IC50 in suppressing proliferation): 8 ± 0.7 µM
IC50 (MCF-7 cells; MCF-7, breast cancer, 72 h, SRB assay (Table 1), read-out: IC50): 7.3 µM
IC50 ([1]; Homo sapiens, HUVEC (Table 2), read-out: IC50 in suppressing proliferation): 47 µM
IC50 ([1]; Homo sapiens, HUVEC, 72 h, SRB assay (Table 1), read-out: IC50): 47.8 µM
IC50 (MDA-MB-231 cells; MDA-MB-231, breast cancer (Table 2), read-out: IC50 in suppressing proliferation): 21.6 µM
IC50 (MDA-MB-231 cells; MDA-MB-231, breast cancer, 72 h, SRB assay (Table 1), read-out: IC50): 23.6 µM
IC50 (T98G cells (glioma)): 25.4 ± 0.28 µM
IC50 (1A9 cells; 1A9, ovarian cancer (Table 2), read-out: IC50 in suppressing proliferation): 3.42 ± 0.1 µM
IC50 (1A9 cells; 1A9, ovarian cancer, 72 h, SRB assay (Table 1), read-out: IC50): 4.8 µM
IC50 (U87 cells (glioblastoma); U87, glioblastoma, 72 h, SRB assay (Table 1), read-out: IC50): 20.5 µM
IC50 (U87 cells (glioblastoma); U87, glioma (Table 2), read-out: IC50 in suppressing proliferation): 20.5 ± 1 µM
IC50 (3T3 fibroblast): 11.2 ± 1.1 µM
IC50 [4]: 2.75 ± 0.7 µM
IC50 (SKOV-3 cells; SKOV-3, ovarian cancer (Table 2), read-out: IC50 in suppressing proliferation): 26 µM
IC50 (SKOV-3 cells; SKOV-3, ovarian cancer, 72 h, SRB assay (Table 1), read-out: IC50): 26 µM
formation of vacuoles (autophagy) (U87 glioma cells): formation of vacuoles
IC50 (T47-D cells): 10.2 ± 0.6 µM
IC50 (LN-18 cells (glioma)): 6.64 ± 0.71 µM
IC50 [5]: 22.5 ± 5.7 µM
IC50 (HaCat keratinocyte): 42.7 ± 8 µM
viability of cancer cell-lines growing in culture (cancer cell lines): reduced viability
potency compared with MPL in suppressing cancer cell proliferation (cancer cell lines; SRB proliferation assay): as potent as MPL; also recorded: as effective as MPL
IC50 ([2]; CHO (Table 2), read-out: IC50 in suppressing proliferation): 73.7 ± 6 µM
IC50 ([2]; CHO, 72 h, SRB assay (Table 1), read-out: IC50): 73.7 µM
IC50 (OVCAR-3 cells; Homo sapiens, OVCAR-3, ovarian cancer (Table 2), read-out: IC50 in suppressing proliferation): 5.5 ± 1.3 µM
IC50 (OVCAR-3 cells; Homo sapiens, OVCAR-3, ovarian cancer, 72 h in vitro treatment, SRB assay (Table 1), read-out: IC50): 5.5 µM
IC50 (HeLa cells): 18.2 ± 2.6 µM
IC50 (IGROV-1 cells): 4.4 ± 1.5 µM

Continued by falling IC50 (A2780 cells; [6]), values first:

IC50 (A2780 cells; [6]): 17 ± 1.2 µM
IC50 (OVCAR-3 cells; [9]): 14.7 ± 1.25 µM
SMILES: CC(C#N)(COc1cc(F)c(F)cc1Br)NC(=O)c1ccc(OC(F)(F)F)cc1 (stereo not shown) [AAD 1336]
IC50 [1, 7]: 61.3 µM
IC50 [2, 8]: 31.8 µM
ratio of IC50 values (normal cell/cancer cell) (OVCAR-3 cells; results of Table 3): particularly high activity

IC50 (A2780 cells; [6]): 14.8 ± 0.45 µM
IC50 (OVCAR-3 cells; [9]): 8 ± 0.7 µM
SMILES: C[C@@](C#N)(COc1cc(C#N)ccc1C(F)(F)F)NC(=O)c1ccc(SC(F)(F)F)cc1 [AAD 2224, N-[(1R)-1-cyano-2-(5-cyano-2-trifluoromethyl-phenoxy)-1-methyl-ethyl]-4-trifluoromethylsulfanyl-benzamide]
IC50 [1, 7]: 109 µM
IC50 [2, 8]: 23.4 µM
potency of MPL-(R) compared with MPL-(S) (OVCAR-3 cells; results of Table 3): equipotent
ratio of IC50 values (normal cell/cancer cell) (OVCAR-3 cells; results of Table 3): particularly high activity
anthelmintic activity (nematodes): no anthelmintic activity
